Series [1] can be described thus: Solubility test of crystal form A in different solvents. Format: physicochemical. The following applies: thermodynamic from solid. The procedure:
Solubility Test of Crystal Form a in Different Solvents Add 1^˜1.5 mg crystal form A of the compound 1 in volumetric flask, then single solvent or mixed solvent is added into the flask with multiple times until the solution become clear or solid particles disappear. The solubility of crystal form A in different solvents is determined thereby.

The subject of another series is HFMD virus EV71. The experiment in a line: EV71 in-vitro cytopathic effect (CPE) test. Format: cell-based. The following applies: Enterovirus A, EV71, 72 h; RD cells, 3 days, CCK8 readout; read-out: EC50 by EC71 CPE test, EV71. The text has this: Activity Evaluation In Vitro Experimental 1: Test of EV71 In-Vitro Cytopathic Effect (CPE) Purpose of Experiment: To test the in-vitro antiviral activity and cytotoxicity of a compound to HFMD virus EV71 by means of cytopathic effect (CPE) test. Test Materials: 1. Virus strain: Shenzhen/120F1/09 2. Cell line: RD cells of human rhabdomyoma 3. Cell culture media: DMEM medium added with 10% serum, Penicillin/Streptomycin and L-Glutannine (1^×) 4. Test reagent: cellular activity test reagent CCK8 Test Method: 1. Cell inoculation: digest off the RD cells from the attached state, then dilute them with culture medium to a density of 80000/ml and inoculate 100 μl into the micro wells of the 96-well plate. 2. Dilution of Compound: Step 1: prepare the dry powder of a compound to be tested into a 10 mM solution in DMSO. Then dilute the compound by three times to eight concentration points. Dilute the reference compounds with the same method. Step 2: further dilute the diluted solution of the compound in DMSO with cell culture medium. Add 10 μl DMSO solution for each well into 240 μl culture medium. 3. Add the diluted compound solution by 50 μl each well into the 96-well plate inoculated with cells (double holes, final concentration of DMSO is 1%). 4. […] Use ELIASA to read the absorbancy at the wavelength of 450 nm and 630 nm. […]

Series [2] is described as follows: Solubility test of crystal form B in different solvents. In kind it is physicochemical. The conditions noted are these: thermodynamic from solid; for solubility at 4 h: read-out: Solubility (mg/mL) 4 h; for solubility at 24 h: read-out: Solubility (mg/mL) 24 h. The procedure:
Solubility Test of Crystal Form B in Different Solvents Add 1^˜1.5 mg crystal form B of the compound 2 in volumetric flask, then single solvent or mixed solvent is added into the flask with multiple times until the solution become clear or solid particles disappear. The solubility of crystal form B in different solvents is determined thereby.

Setting [3] is: aqueous buffer, pH 3.5 buffer solution.
Setting [4] is: aqueous buffer, pH 4.5 buffer solution.
Setting [5] is: aqueous buffer, pH 5.5 buffer solution.
[6] abbreviates: aqueous buffer, pH 6.5 buffer solution.
[7] abbreviates: aqueous buffer, pH 6.8 buffer solution.
The mark [8] stands for this setting: aqueous buffer, pH 7.5 buffer solution.
The mark [9] stands for this setting: saline or isotonic, normal saline.
Where [10] appears, read: simulated gastric fluid, 0.01N HCl.
Setting [11] is: simulated gastric fluid, 0.1N HCl.

What is called EC50 is the midpoint of the concentration-response curve.

In brackets after ≈: the same amount, converted by molar mass. Like-named read-outs stand apart in the source and are kept apart here.

In the case of `CCn1nnc(-c2ccc(OCCC(C)(C)CCN3CCN(c4ccnc(N)c4)S3(=O)=O)nc2)n1` [Compound 1], the solubility in series [1] (aqueous with cosolvent or surfactant or cyclodextrin, solvent: Acetone-water (3:1)) is less than 2240 µg/mL; in series [1] (aqueous with cosolvent or surfactant or cyclodextrin, solvent: Ethanol-water (3:1)), less than 2320 µg/mL; in series [1] (aqueous with cosolvent or surfactant or cyclodextrin, solvent: Methanol-water (3:1)), less than 2070 µg/mL; in series [1] (organic solvent or mixture, solvent: 1,4-dioxane), 11800 to 13200 µg/mL (≈ 23.5 to 26.3 mM); in series [1] (organic solvent or mixture, solvent: 2-Methyltetrahydrofuran) it was less than 2180 µg/mL; in series [1] (organic solvent or mixture, solvent: acetone), 5580 to 7430 µg/mL (≈ 11.1 to 14.8 mM). The solubility in series [1] (organic solvent or mixture, solvent: ethanol) is less than 2090 µg/mL; in series [1] (organic solvent or mixture, solvent: ethyl acetate), less than 2130 µg/mL; in series [1] (organic solvent or mixture, solvent: methanol), less than 1980 µg/mL. For the same compound, in the series on HFMD virus EV71, the EC50 is no more than 10 nM.
Turning to `CCn1nnc(-c2ccc(OCCC(C)(C)CCN3CCN(c4ccnc(N)c4)S3(=O)=O)nc2)n1` [Compound 2], the solubility at 4 h is 232 mg/mL (≈ 463 mM) in series [2] (setting [3]); 6.12 mg/mL (≈ 12.2 mM) in series [2] (setting [4]); less than 0.1 mg/mL in series [2] (setting [5]); less than 0.1 mg/mL in series [2] (setting [6]); less than 0.1 mg/mL in series [2] (setting [7]); less than 0.1 mg/mL in series [2] (setting [8]). Further, the solubility at 4 h was 42.9 mg/mL (≈ 85.5 mM) in series [2] (setting [9]), greater than 998 mg/mL in series [2] (setting [10]), greater than 873 mg/mL in series [2] (setting [11]) and 416 mg/mL (≈ 829 mM) in series [2] (water). The solubility at 24 h was 186 mg/mL (≈ 370 mM) in series [2] (setting [3]); 4.54 mg/mL (≈ 9.05 mM) in series [2] (setting [4]); less than 0.1 mg/mL in series [2] (setting [5]); less than 0.1 mg/mL in series [2] (setting [6]); less than 0.1 mg/mL in series [2] (setting [7]); less than 0.1 mg/mL in series [2] (setting [8]). In addition, the solubility at 24 h was 43.4 mg/mL (≈ 86.6 mM) in series [2] (setting [9]), greater than 986 mg/mL in series [2] (setting [10]), greater than 935 mg/mL in series [2] (setting [11]) and 346 mg/mL (≈ 690 mM) in series [2] (water).

The values are drawn from patent US10227339B2, “Salt form and crystal form of 1,2,5-thiadiazolidin-1,1-dioxide, preparation method thereof and intermediate” (JIANGSU KANION PARMACEUTICAL CO. LTD, priority 2015, dated 2019).
